Assay results reported in patent US11401278B2, “Macrocyclic indole derivatives” (The Broad Institute, Inc., priority 2017, dated 2022).
Structures can show the parent of a compound that is named as a salt.

Molecular target: MCL1 protein (Homo sapiens (Human), UniProt Q07820)
Test: PIxEL: protein-protein interaction in permeabilized cells by ELISA (Assay 5)
Assay type: cell-based
Conditions: permeabilized RKO cells, Biotin-BIM peptide 0.2 μM, serum free; median
Method: PI×EL: Protein-Protein Interaction in Permeabilized Cells by ELISA
Most MCL1 protein molecules are localized at the mitochondria outer membrane and sequester pro-apoptotic proteins through binding of their BCL2 homology domain 3 (BH3 domain). MEB buffer (150 mM mannitol, 10 mM HEPES pH 7.5, 50 mM KCl, 20 μM EDTA, 20 μM EGTA, 5 mM potassium succinate, 0.1% protease-free BSA (SIGMA) with low dose digitonin (0.002%) permeabilizes plasma membrane while leaves live mitochondria, where MCL1 maintains its native localization and conformation. Unlike biophysical assays (e.g. TR-FRET) that use truncated recombinant MCL1 protein, this assay uses full length endogenous MCL1 protein at mitochondria outer membrane. It measures the interaction between MCL1 protein and biotinylated BIM BH3 peptide. Compounds can compete with BIM BH3 peptide to bind to MCL1 protein. This serum free assay measures the affinity between MCL1 protein and compound in permeabilized cells, therefore it is not affected by serum binding and cell permeability, and can measure the intrinsic compound affinity.
On day 1, RKO colon cancer cell line cells were plated at 0.8 million cells/ml, 100 μl/well in 96-well flat bottom TC plates (Corning). MCL1 antibody (Santa Cruz sc-12756) were diluted at 200 fold (final concentration 1 μg/ml) in carbonate buffer (Thermo Fisher Scientific, pH 9.6), and 50 μl of diluted antibody was added to each well of high bind ELISA plates (SARSTEDT). Each plate was tapped to make sure liquid covering entire bottom of wells and incubate at 37° C. overnight.
On the second day, MCL1 antibody was washed from ELISA plate. 250 μl Odyssey® Blocking Buffer (PBS) (Li-Cor) was added to each well, incubated at room temperature for at least 1 hour, then washed once with 250 μl 1×PBST. Plates with RKO cells were gently washed once with 100 μl/well PBS, once with 100 μl/well MEB buffer without digitonin, then 100 μl of MEB buffer with 0.002% digitonin was gently added to each well. Compounds were added with HP Tecan compound dispenser in 3-fold dilution series, highest dose 30 μM, 10-dose per compound in quadruplicates. Biotin-BIM peptide (synthesized by 21st Century) was added with HP Tecan compound dispenser at 0.2 μM immediately after the addition of compounds. Plates were rocked for 1 hour at room temperature. Then MEB buffer was aspirated and 50 μl of CHAPS buffer (50 mM Tris-Cl, pH 7.4, 150 mM NaCl, 1% CHAPS, 1 mM EDTA, 1 mM EGTA, cOmplete protease inhibitors (Roche), PhosSTOP (Roche)) was added to each well. Plates were rocked for 1 hour at 4° C., then 45 μl cell lysate from each well were transferred to ELISA plates coated with MCL1 antibody. Plates were incubated overnight in the cold room with rocking.
On the third day, ELISA plates were washed once with 250 μl 1×PBST. Streptavidin-poly-HRP (Thermo Fisher Scientific) was diluted to 20 ng/ml in Odyssey blocking buffer plus 0.05% Triton-100, and 100 μl was added to each well of the ELISA plate. Plates were incubated at room temperature for 1 hour with rocking, then washed with 100 μL 1×PBST for 3 times. Each SuperSignal ELISA Femto Maximum Sensitivity substrate was added to a 50-ml tube and mixed, then 100 μl of mixed substrate was added to each well. Plates were shaken for 1 minute then luminescence was measured by Envision plate reader […]. Signal of each well were normalized by no-compound control and no-cell control. IC50 was calculated using Graphic Pad PRISM software.

Chain of MCL1 protein (Q07820 whole entry): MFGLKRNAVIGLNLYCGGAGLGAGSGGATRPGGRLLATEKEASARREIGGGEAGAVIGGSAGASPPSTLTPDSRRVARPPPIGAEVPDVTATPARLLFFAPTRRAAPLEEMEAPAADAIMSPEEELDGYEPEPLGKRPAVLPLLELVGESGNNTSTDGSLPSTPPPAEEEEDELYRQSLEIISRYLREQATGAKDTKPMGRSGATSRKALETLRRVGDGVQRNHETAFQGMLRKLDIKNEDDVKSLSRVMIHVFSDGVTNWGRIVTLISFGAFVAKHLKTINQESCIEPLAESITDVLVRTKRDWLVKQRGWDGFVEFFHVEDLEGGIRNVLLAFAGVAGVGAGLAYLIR

Point of comparison: CCc1c2c(nn1C)CN(CC)S(=O)(=O)CCCn1c(C(=O)O)c(CCCOc3cccc4cc(F)ccc34)c3ccc(Cl)c-2c31 (racemic) [Example 56, (rac)-4-chloro-3,14-diethyl-7-{3-[(6-fluoro-1-naphthyl)oxy]propyl}-2-methyl-11,12,14,15-tetrahydro-2H,10H-pyrazolo[3′,4′:4,5][1,2,8]thiadiazacycloundecino[6,7,8-hi]indole-8-carboxylic acid 13,13-dioxide], IC50 145 nM. Against it:
- CCc1c2c(nn1C)CN(CC)S(=O)(=O)CCCn1c(C(=O)O)c(CCCOc3cccc4cc(F)ccc34)c3ccc(Cl)c-2c31 (single isomer, unassigned; enantiomer 1) [Example 57, (+)-4-chloro-3,14-diethyl-7-{3-[(6-fluoronaphthalen-1-yl)oxy]propyl}-2-methyl-13,13-dioxo-10,11,12,13,14,15-hexahydro-2H-13lambda^6-pyrazolo[3′,4′:4,5][1,2,8]thiadiazacycloundecino[6,7,8-hi]indole-8-carboxylic acid N-ethylethanamine Salt (Enantiomer 1)] — 1.9-fold lower, 74.8 nM
- CCc1c2c(nn1C)C(CCN1CCOCC1)N(C)S(=O)(=O)CCCn1c(C(=O)O)c(CCCOc3cccc4cc(F)ccc34)c3ccc(Cl)c-2c31 (racemic) [Example 73, (rac)-(4-chloro-3-ethyl-7-{3-[(6-fluoronaphthalen-1-yl)oxy]propyl}-2,14-dimethyl-15-[2-(morpholin-4-yl)ethyl]-13,13-dioxo-10,11,12,13,14,15-hexahydro-2H-13lambda^6-pyrazolo[3′,4′:4,5][1,2,8]thiadiazacycloundecino[6,7,8-hi]indole-8-carboxylic acid (Racemate 1)] — 4.4-fold lower, 33.1 nM
- CCc1c2c(nn1C)CN(C1CC1)S(=O)(=O)CCCn1c(C(=O)O)c(CCCOc3cccc4cc(F)ccc34)c3ccc(Cl)c-2c31 (single isomer, unassigned; enantiomer 1) [Example 54, (−)-4-chloro-14-cyclopropyl-3-ethyl-7-{3-[(6-fluoronaphthalen-1-yl)oxy]propyl}-2-methyl-13,13-dioxo-10,11,12,13,14,15-hexahydro-2H-13lambda^6-pyrazolo[3′,4′:4,5][1,2,8]thiadiazacycloundecino[6,7,8-hi]indole-8-carboxylic acid N-ethylethanamine Salt (Enantiomer 1)] — 2.5-fold higher, 360 nM
- CCc1c2c(nn1C)CN(C1CC1)S(=O)(=O)CCCn1c(C(=O)O)c(CCCOc3cccc4cc(F)ccc34)c3ccc(Cl)c-2c31 (racemic) [Example 53, (rac)-4-chloro-14-cyclopropyl-3-ethyl-7-{3-[(6-fluoro-1-naphthyl)oxy]propyl}-2-methyl-11,12,14,15-tetrahydro-2H,10H-pyrazolo[3′,4′:4,5][1,2,8]thiadiazacycloundecino[6,7,8-hi]indole-8-carboxylic acid 13,13-dioxide] — 2.3-fold higher, 329 nM
- CCc1c2c(nn1C)C(CCC1CCOCC1)N(C)S(=O)(=O)CCCn1c(C(=O)O)c(CCCOc3cccc4cc(F)ccc34)c3ccc(Cl)c-2c31 (single isomer, unassigned; enantiomer 3) [Example 63, (+)-4-chloro-3-ethyl-7-{3-[(6-fluoronaphthalen-1-yl)oxy]propyl}-2,14-dimethyl-15-[2-(oxan-4-yl)ethyl]-13,13-dioxo-10,11,12,13,14,15-hexahydro-2H-13lambda^6-pyrazolo[3′,4′:4,5][1,2,8]thiadiazacycloundecino[6,7,8-hi]indole-8-carboxylic acid (Enantiomer 3)] — 6.6-fold lower, 22 nM
- Cc1c2c(nn1C)CN(C1CC1)S(=O)(=O)CCCn1c(C(=O)O)c(CCCOc3cccc4ccccc34)c3ccc(Cl)c-2c31 [Example 40, (rac)-4-chloro-14-cyclopropyl-2,3-dimethyl-7-[3-(1-naphthyloxy)propyl]-11,12,14,15-tetrahydro-2H,10H-pyrazolo[3′,4′:4,5][1,2,8]thiadiazacycloundecino[6,7,8-hi]indole-8-carboxylic acid 13,13-dioxide] — 200-fold higher, 29400 nM
- Cc1c2c(nn1C)CNS(=O)(=O)CCCn1c(C(=O)O)c(CCCOc3cccc4cc(F)ccc34)c3ccc(Cl)c-2c31 (single isomer, unassigned; enantiomer 1) [Example 51, 4-chloro-7-{3-[(6-fluoronaphthalen-1-yl)oxy]propyl}-2,3-dimethyl-13,13-dioxo-10,11,12,13,14,15-hexahydro-2H-13lambda^6-pyrazolo[3′,4′:4,5][1,2,8]thiadiazacycloundecino[6,7,8-hi]indole-8-carboxylic acid (Enantiomer 1)] — 3.2-fold higher, 458 nM
- Cc1c2c(nn1C)C(CCN1CCOCC1)N(C)S(=O)(=O)CCCn1c(C(=O)O)c(CCCOc3cccc4cc(F)ccc34)c3ccc(Cl)c-2c31 (single isomer, unassigned; enantiomer 2) [Example 67, 4-chloro-7-{3-[(6-fluoronaphthalen-1-yl)oxy]propyl}-2,3,14-trimethyl-15-[2-(morpholin-4-yl)ethyl]-13,13-dioxo-10,11,12,13,14,15-hexahydro-2H-13lambda^6-pyrazolo[3′,4′:4,5][1,2,8]thiadiazacycloundecino[6,7,8-hi]indole-8-carboxylic acid (Enantiomer 2)] — 17-fold lower, 8.74 nM

Molecular target: MCL-1 (Homo sapiens (Human), UniProt Q07820, K194A/K197A/R201A)
Test: Protein-compound interaction assay (SPR assay, Assay 8)
Assay type: binding
Conditions: immobilized MBP-MCL-1, 25° C., geometric mean
From the text: Assay 8 Protein-Compound Interaction Assay (SPR Assay)
The ability of the compounds described in this invention to bind to MCL-1 may be determined using surface plasmon resonance (SPR). This allows for the quantification of binding in terms of the equilibrium dissociation constant (KD [M]), as well as association and dissociation rate constants (kon [1/M 1/s] and koff [1/s], respectively). The measurements may be performed using Biacore® T200 or Biacore® S200 instruments (GE Healthcare).
For SPR measurements, recombinant MCL-1 (amino acids 173-321, N-terminal fused to Maltose Binding Protein (MBP) (SEQ ID 1) purchased from Beryllium (Bedford, Mass., USA)) was immobilized using standard amine coupling (Johnsson B et al, Anal Biochem. 1991 Nov. 1; 198(2):268-77). Briefly, carboxymethylated dextran biosensor chips (Series S Sensor Chip CMS, GE Healthcare) were activated with 1-ethyl-3-(3-dimethylaminopropyl)-carbodiimide hydrochloride (EDC) and N-hydroxysuccinimide (NHS) according to the supplier's instructions. MBP-MCL-1 was diluted in 1×PBS-P+ (GE Healthcare) and injected on the activated chip surface. Subsequently, a solution of 1 M ethanolamine-HCl (GE Healthcare) was injected to block unreacted groups, resulting in approximately 400-2500 response units (RU) of immobilized protein. A reference surface was generated by treatment with NHS-EDC and ethanolamine-HCl. Compounds were dissolved in 100% dimethylsulfoxide (DMSO) to a concentration of 10 mM and subsequently diluted in running buffer (1×PBS-P+ (GE Healthcare) [generated from PBS-P+ Buffer 10× (GE Healthcare): 0.2 M phosphate buffer with 27 mM KCl, 1.37 M NaCl and 0.5% Surfactant P20 (Tween 20).], 1% v/v DMSO). For SPR binding-measurements, serial dilutions of compound (eight dilution steps, typically ranging from 0.2 nM up to 1 μM) were injected over immobilized protein. […] Compounds were injected for 60 s followed by a dissociation time of up to 1000 s.
The double-referenced sensorgrams were fit to a simple reversible Langmuir 1:1 reaction mechanism as implemented in the Biacore® T200 and S200 evaluation software (T200 evaluation software version 2.0 and S200 evaluation software version 1.0, GE Healthcare).

Chain of MCL-1 (Q07820 whole entry K194A/K197A/R201A, looked up): as the sequence (Q07820 whole entry) above, with K194A, K197A, R201A counted along it

Work on CCNCC.CCc1c2c(nn1C)C(CCN1CCOCC1)N(C)S(=O)(=O)CCCn1c(C(=O)O)c(CCCOc3cccc4cc(F)ccc34)c3ccc(Cl)c-2c31 (single isomer, unassigned; enantiomer 2) [Example 76, 4-chloro-3-ethyl-7-{3-[(6-fluoronaphthalen-1-yl)oxy]propyl}-2,14-dimethyl-15-[2-(morpholin-4-yl)ethyl]-13,13-dioxo-10,11,12,13,14,15-hexahydro-2H-13lambda^6-pyrazolo[3′,4′:4,5][1,2,8]thiadiazacycloundecino[6,7,8-hi]indole-8-carboxylic acid-N-ethylethanamine Salt (Enantiomer 2)] yielded a Kd of 0.34 nM.

CCNCC.CCc1c2c(nn1C)C(CCN1CCOCC1)N(C)S(=O)(=O)CCCn1c(C(=O)O)c(CCCOc3cccc4cc(F)ccc34)c3ccc(Cl)c-2c31 (single isomer, unassigned; enantiomer 2) [Example 76, 4-chloro-3-ethyl-7-{3-[(6-fluoronaphthalen-1-yl)oxy]propyl}-2,14-dimethyl-15-[2-(morpholin-4-yl)ethyl]-13,13-dioxo-10,11,12,13,14,15-hexahydro-2H-13lambda^6-pyrazolo[3′,4′:4,5][1,2,8]thiadiazacycloundecino[6,7,8-hi]indole-8-carboxylic acid-N-ethylethanamine Salt (Enantiomer 2)] was tested, and the “koff” value was 0.0025 s⁻¹.

For CCNCC.CCc1c2c(nn1C)C(CCN1CCOCC1)N(C)S(=O)(=O)CCCn1c(C(=O)O)c(CCCOc3cccc4cc(F)ccc34)c3ccc(Cl)c-2c31 (single isomer, unassigned; enantiomer 2) [Example 76, 4-chloro-3-ethyl-7-{3-[(6-fluoronaphthalen-1-yl)oxy]propyl}-2,14-dimethyl-15-[2-(morpholin-4-yl)ethyl]-13,13-dioxo-10,11,12,13,14,15-hexahydro-2H-13lambda^6-pyrazolo[3′,4′:4,5][1,2,8]thiadiazacycloundecino[6,7,8-hi]indole-8-carboxylic acid-N-ethylethanamine Salt (Enantiomer 2)], the “kon” value was 7.3e+06 M⁻¹ s⁻¹.
